Laboratory results taken from patent publication US12208088B2 (Genentech, Inc., priority 2018, dated 2025).
pKi: −log10 of the molar value.

Molecular target: HPK1 (Homo sapiens (Human), UniProt Q92918)
Test: HPK1 Lantha binding assay ("Lanth")
Details: binding assays; Morrison Ki fit
How it was run: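 Ki values are from Morrison-equation fitting of 665/615 nm TR-FRET signals, taking enzyme level, tracer level and tracer Kd into account. The assay mix held HPK1 (2 nM), Eu-anti-GST antibody (2 nM) and Tracer222 (15 nM). Incubations were two 1 h steps at 23 °C, on 5-fold serial compound dilutions.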

Chain of HPK1 (Q92918 1-346 limits assumed): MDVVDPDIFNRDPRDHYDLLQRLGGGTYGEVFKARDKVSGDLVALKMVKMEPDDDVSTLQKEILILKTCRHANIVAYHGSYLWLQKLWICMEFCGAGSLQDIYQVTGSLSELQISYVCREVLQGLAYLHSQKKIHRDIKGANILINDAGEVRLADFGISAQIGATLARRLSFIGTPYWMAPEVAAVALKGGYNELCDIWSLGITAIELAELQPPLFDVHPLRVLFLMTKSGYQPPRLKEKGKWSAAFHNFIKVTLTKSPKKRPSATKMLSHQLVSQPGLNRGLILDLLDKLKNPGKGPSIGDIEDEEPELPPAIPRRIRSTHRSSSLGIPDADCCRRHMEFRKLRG

| Structure (SMILES) | pKi |
| --- | --- |
| NC1CN(C(=O)c2cccc(-c3cnc4c(c3Cl)C3(CC3)CN4)c2F)C1 [Compound 51, (3-Aminoazetidin-1-yl)(3-(4′-chloro-1′,2′-dihydrospiro[cyclopropane-1,3′-pyrrolo[2,3-b]pyridin]-5′-yl)-2-fluorophenyl)methanone] | 7.17 |
| COc1c(-c2ccc(N)c(C(=O)N(C)CCO)c2F)cnc2c1C1(CCC1)CN2 [Compound 52, 6-Amino-2-fluoro-N-(2-hydroxyethyl)-3-(4′-methoxy-1′,2′-dihydrospiro[cyclobutane-1,3′-pyrrolo[2,3-b]pyridin]-5′-yl)-N-methylbenzamide] | 7.72 |
| Cc1c(-c2ccc(N)c(C(=O)N(C)C)c2F)cnc2c1C1(CCC1)CN2 [Compound 53, 6-Amino-2-fluoro-N,N-dimethyl-3-(4′-methyl-1′,2′-dihydrospiro[cyclobutane-1,3′-pyrrolo[2,3-b]pyridin]-5′-yl)benzamide] | 7.54 |
| O=C1NCCN1c1cccc(-c2cnc3c(c2Cl)C2(CC2)CN3)c1 [Compound 55, 1-(3-(4′-Chloro-1′,2′-dihydrospiro[cyclopropane-1,3′-pyrrolo[2,3-b]pyridin]-5′-yl)phenyl)imidazolidin-2-one] | 7.07 |
| N#Cc1cc2c(-c3cnc4c(c3)C3(CC3)CN4)c[nH]c2cn1 [Compound 56, 3-(1′,2′-Dihydrospiro[cyclopropane-1,3′-pyrrolo[2,3-b]pyridin]-5′-yl)-1H-pyrrolo[2,3-c]pyridine-5-carbonitrile] | 7.45 |
| Cn1cccc(-c2cccc(-c3cnc4c(c3Cl)C3(CC3)CN4)c2)c1=O [Compound 57, 3-(3-(4′-Chloro-1′,2′-dihydrospiro[cyclopropane-1,3′-pyrrolo[2,3-b]pyridin]-5′-yl)phenyl)-1-methylpyridin-2(1H)-one] | 8.04 |
| O=C1NCCCC1c1cccc(-c2cnc3c(c2Cl)C2(CC2)CN3)c1 (centres unmarked) [Compound 58, 3-(3-(4′-Chloro-1′,2′-dihydrospiro[cyclopropane-1,3′-pyrrolo[2,3-b]pyridin]-5′-yl)phenyl)piperidin-2-one] | 7.36 |
| CC(=O)Nc1ccc(-c2cnc3c(c2)C2(CC2)CN3)cc1C(F)(F)F [Compound 64, N-(4-(1′,2′-Dihydrospiro[cyclopropane-1,3′-pyrrolo[2,3-b]pyridin]-5′-yl)-2-(trifluoromethyl)phenyl)acetamide] | 7.05 |
| C[C@H]1CNC(=O)N1c1cccc(-c2cnc3c(c2Cl)C2(CC2)CN3)c1 [Compound 69b, (S)-1-(3-(4′-Chloro-1′,2′-dihydrospiro[cyclopropane-1,3′-pyrrolo[2,3-b]pyridin]-5′-yl)phenyl)-5-methylimidazolidin-2-one] | 7.79 |
| O=C1NCCN1c1cccc(-c2cnc3c(c2)C2(CC2)CN3)n1 [Compound 71, 1-(6-(1′,2′-Dihydrospiro[cyclopropane-1,3′-pyrrolo[2,3-b]pyridin]-5′-yl)pyridin-2-yl)imidazolidin-2-one] | 6.94 |
| O=C1NCCC1c1cccc(-c2cnc3c(c2Cl)C2(CC2)CN3)c1 (centres unmarked) [Compound 73] | 7.58 |
| N#Cc1cc2c(-c3cnc4c(c3)C3(CC3)CN4)c[nH]c2cc1F [Compound 74] | 7.51 |

Continued by rising pKi, values first:

| pKi | Structure (SMILES) |
| --- | --- |
| 6.56 | c1cc(-c2cnc3c(c2)C2(CC2)CN3)cc(-c2nnn3c2CNCC3)c1 [Compound 72, 5′-(3-(4,5,6,7-Tetrahydro-[1,2,3]triazolo[1,5-a]pyrazin-3-yl)phenyl)-1′,2′-dihydrospiro[cyclopropane-1,3′-pyrrolo[2,3-b]pyridine]] |
| 6.86 | CC(=O)NC1CN(C(=O)c2cccc(-c3cnc4c(c3Cl)C3(CC3)CN4)c2F)C1 [Compound 50, N-(1-(3-(4′-Chloro-1′,2′-dihydrospiro[cyclopropane-1,3′-pyrrolo[2,3-b]pyridin]-5′-yl)-2-fluorobenzoyl)azetidin-3-yl)acetamide] |
| 6.87 | NS(=O)(=O)c1ccc(-c2cnc3c(c2)C2(CC2)CN3)cc1 [Compound 65, 4-(1′,2′-Dihydrospiro[cyclopropane-1,3′-pyrrolo[2,3-b]pyridin]-5′-yl)benzenesulfonamide] |
| 6.99 | O=C1NCCCN1c1cccc(-c2cnc3c(c2)C2(CC2)CN3)n1 [Compound 70, 1-(6-(1′,2′-Dihydrospiro[cyclopropane-1,3′-pyrrolo[2,3-b]pyridin]-5′-yl)pyridin-2-yl)tetrahydropyrimidin-2(1H)-one] |
| 7.07 | CS(=O)(=O)c1cccc(-c2cnc3c(c2)C2(CC2)CN3)c1 [Compound 63, 5′-(3-(Methylsulfonyl)phenyl)-1′,2′-dihydrospiro[cyclopropane-1,3′-pyrrolo[2,3-b]pyridine]] |
| 7.18 | NS(=O)(=O)c1cccc(-c2cnc3c(c2)C2(CC2)CN3)c1 [Compound 62, 3-(1′,2′-Dihydrospiro[cyclopropane-1,3′-pyrrolo[2,3-b]pyridin]-5′-yl)benzenesulfonamide] |
| 7.19 | CC(=O)Nc1cc(C#N)cc2c(-c3cnc4c(c3)C3(CC3)CN4)cn(C)c12 [Compound 54, N-(5-Cyano-3-(1′,2′-dihydrospiro[cyclopropane-1,3′-pyrrolo[2,3-b]pyridin]-5′-yl)-1-methyl-1H-indol-7-yl)acetamide] |
| 7.27 | CN(C)C(=O)c1c(N)ccc(-c2cnc3c(c2)C2(CCC2)CN3)c1F [Compound 66, 6-Amino-3-(1′,2′-dihydrospiro[cyclobutane-1,3′-pyrrolo[2,3-b]pyridin]-5′-yl)-2-fluoro-N,N-dimethylbenzamide] |
| 7.45 | C[C@@H]1CNC(=O)N1c1cccc(-c2cnc3c(c2Cl)C2(CC2)CN3)c1 [Compound 69a, (R)-1-(3-(4′-Chloro-1′,2′-dihydrospiro[cyclopropane-1,3′-pyrrolo[2,3-b]pyridin]-5′-yl)phenyl)-5-methylimidazolidin-2-one] |
| 7.56 | O=C1NCCCN1c1cccc(-c2cnc3c(c2)C2(CC2)CN3)c1 [Compound 67, 1-(3-(1′,2′-Dihydrospiro[cyclopropane-1,3′-pyrrolo[2,3-b]pyridin]-5′-yl)phenyl)tetrahydropyrimidin-2(1H)-one] |
| 7.80 | O=C1CCCCN1c1cccc(-c2cnc3c(c2Cl)C2(CC2)CN3)c1 [Compound 60, 1-(3-(4′-Chloro-1′,2′-dihydrospiro[cyclopropane-1,3′-pyrrolo[2,3-b]pyridin]-5′-yl)phenyl)piperidin-2-one] |
| 7.85 | O=C1NCCCN1c1cccc(-c2cnc3c(c2Cl)C2(CC2)CN3)c1 [Compound 59, 1-(3-(4′-Chloro-1′,2′-dihydrospiro[cyclopropane-1,3′-pyrrolo[2,3-b]pyridin]-5′-yl)phenyl)tetrahydropyrimidin-2(1H)-one] |
| 7.89 | Nc1cc(-c2cnc3c(c2Cl)C2(CCC(O)C2)CN3)cc(-c2ncccc2CO)c1 (centres unmarked) [Compound 61, 5′-(3-Amino-5-(3-(hydroxymethyl)pyridin-2-yl)phenyl)-4′-chloro-1′,2′-dihydrospiro[cyclopentane-1,3′-pyrrolo[2,3-b]pyridin]-3-ol] |
| 8.27 | Cn1cccc(-c2cccc(-c3cnc4c(c3Cl)[C@]3(CC[C@H](O)C3)CN4)c2)c1=O [Compound 68c, 3-(3-((1R,3S)-4′-chloro-3-hydroxy-1′,2′-dihydrospiro[cyclopentane-1,3′-pyrrolo[2,3-b]pyridin]-5′-yl)phenyl)-1-methylpyridin-2(1H)-one] |
